Laboratory results: US20250017834A1, “SUNSCREEN COMPOSITIONS COMPRISING IMINE ANALOGS OF A SUNSCREEN COMPRISING A KETONE” (Curie Co. Inc., priority 2020, published 2025)

Key:
Assay type in all cases: physicochemical
[1] = UV/Vis spectral properties (UVA, UVB and visible absorption), Cary-50 spectrophotometer; details: for UV absorption properties compared to oxybenzone: 5 mM or 0.05 mM, FIG. 1; for Absorption spectra compared to oxybenzone: 5 mM (N-Boc-Imine-6 also 0.05 mM), FIG. 3
Method: Imine-1, Imine-2, and Imine-3 were synthesized, purified, and isolated (see above). All three compounds were separately dissolved in acetonitrile to a final concentration of 5 mM (FIG. 1) or 0.05 mM (FIG. 1, inset) and analyzed by UV/Vis (Cary-50 Spectrophotomer). The spectral properties were compared to oxybenzone in acetonitrile.
Carbamate-1, first described in U.S. Pat. No. 5,490,980A, was synthesized, purified, and isolated (see above). Carbamate-1 was dissolved in acetonitrile to a final concentration of 0.05 mM and analyzed by UV/Vis (Cary-50 Spectrophotomer). The spectral properties were compared to oxybenzone in acetonitrile at a final concentration of 0.05 mM.
Imine-4, Imine-5, and N-Boc-Imine-6 were synthesized, purified, and isolated (see above). All three compounds were separately dissolved in acetonitrile to a final concentration of 5 mM (FIG. 3) and analyzed by UV/Vis (Cary-50 Spectrophotomer). N-Boc-Imine-6 was diluted in acetonitrile to a final concentration of 0.05 mM (FIG. 3, inset) and analyzed by UV/Vis. […] Spectral properties were compared to oxybenzone in acetonitrile at the same concentration.
To understand the solution stability of the Boc-protected imines in protic solvent, N-Boc-Imine-6 was prepared in ethanol in the presence of catalytic glacial acetic acid. Briefly, to a solution of oxybenzone (0.10 g, 0.438 mmol, 1 eq) and N-Boc-1,6-hexanediamine (0.094 g, 0.43 mmol, 1 eq) in ethanol (0.3 mL) was added catalytic glacial acetic acid (1 μL). The reaction mixture was agitated at 900 rpm at 70° C. for 16 hr and monitored by LCMS. […] The reaction was then diluted in ethanol to final concentration of 0.04 mM and analyzed by UV/Vis spectroscopy.
N-Boc-Imine-8 and Imine-8 was synthesized, purified, and isolated (see above). N-Boc-Imine-8 and Imine-8 were dissolved in ethanol to a final concentration of 0.032 mM and 8 mM, respectively (FIG. 6) and analyzed by UV/Vis. (Cary-50 Spectrophotomer). Spectral properties were compared to sulisobenzone in ethanol at similar concentration.
Imine-10 was first dissolved in methyl tert-butyl ether and then diluted in ethanol to a final concentration of 5 mM and 0.04 mM (FIG. 7) and analyzed by UV/Vis. (Cary-50 Spectrophotomer). Spectral properties were compared to oxybenzone at similar concentration.

[2] = Solubility in acetonitrile
[3] = Solution stability of Boc-protected imine in protic solvent (ethanol), LCMS and UV/Vis; details: 70° C., over 24 hours, catalytic glacial acetic acid
Method: To understand the solution stability of the Boc-protected imines in protic solvent, N-Boc-Imine-6 was prepared in ethanol in the presence of catalytic glacial acetic acid. Briefly, to a solution of oxybenzone (0.10 g, 0.438 mmol, 1 eq) and N-Boc-1,6-hexanediamine (0.094 g, 0.43 mmol, 1 eq) in ethanol (0.3 mL) was added catalytic glacial acetic acid (1 μL). The reaction mixture was agitated at 900 rpm at 70° C. for 16 hr and monitored by LCMS. Full reaction of the starting material to a single product peak was observed by LCMS indicating completion. The reaction was then diluted in ethanol to final concentration of 0.04 mM and analyzed by UV/Vis spectroscopy. […] Additionally, the Boc-protecting group remained intact throughout the reaction and UV/Vis analysis.

With `COc1ccc(C(=O)c2ccccc2)c(OC(=O)NCCCCCCNC(=O)OC(C)(C)C)c1` [Carbamate-1, reference compound] as the compound, how does the “UV filter properties compared to oxybenzone” value ([1]; acetonitrile, 0.05 mM, FIG. 2) read?
The value was “UVA blocking was reduced”.

For `COc1ccc(/C(=N/Cc2ccccc2)c2ccccc2)c(O)c1` [Imine-1], which “UV absorption properties compared to oxybenzone” value ([1]; acetonitrile) is on record?
The value was “improved both UVA-1, UVA-2, and UVB absorption properties”.

Which “UV absorption properties compared to oxybenzone” value ([1]; acetonitrile) does the source give for `COc1ccc(/C(=N/c2ccccc2)c2ccccc2)c(O)c1` [Imine-2] here?
Its value is “improved both UVA-1, UVA-2, and UVB absorption properties”.

For `COc1ccc(/C(=N/O)c2ccccc2)c(O)c1` [Imine-3], which “UV absorption properties compared to oxybenzone” value ([1]; acetonitrile) is on record?
The value was “loss in the UVA blocking and reduction in UVB blocking”.

Which “Absorption spectra compared to oxybenzone” value ([1]; acetonitrile) does the source give for `COc1ccc(/C(=N/C(CCC(N)=O)C(=O)O)c2ccccc2)c(O)c1` (centres unmarked) [Imine-5] here?
Its value is “encompassed the UVA-1, UVA-2, and UVB regions as well as the visible region of the spectrum (greater than 400 nm)”.

Which Solubility in acetonitrile [2] does the source give for `COc1ccc(/C(=N/CCCCCCN)c2ccccc2)c(O)c1` [Imine-6] here?
The Solubility in acetonitrile was “poor solubility”.

Which “Absorbance compared to sulisobenzone” value ([1]; ethanol, N-Boc-Imine-8 0.032 mM, Imine-8 8 mM, FIG. 6) does the source give for `COc1cc(O)c(/C(=N\CCCCCCN)c2ccccc2)cc1S(=O)(=O)O` [Imine-8] here?
The value was “retained absorbance in the UVB region and extended absorbance into the UVA region”.

With `CCCCCCOC(=O)c1ccccc1/C(=N/CCCCCCN)c1cccc(N(CC)CC)c1O` [Imine-9] as the compound, how does the “Absorbance spectra of DHHB-derived imines” value ([1]; data not shown) read?
Its value is “red shift of the absorbance spectra, which extends to the visible region”.

With `COc1ccc(/C(=N/CCCCCCNC(=O)OC(C)(C)C)c2ccccc2)c(O)c1` [N-Boc-Imine-6] as the compound, how does the “Absorption spectra compared to oxybenzone” value ([1]; acetonitrile) read?
Its value is “encompassed the UVA-1, UVA-2, and UVB regions as well as the visible region of the spectrum (greater than 400 nm)”.

What about the “Absorption spectrum in ethanol” value ([1]; ethanol, 0.04 mM, reaction mixture diluted, FIG. 4) of the same compound?
The value was “encompasses the UVA and UVB regions as well as the visible region of the spectrum (greater than 400 nm)”.

What about the “Solution stability without reversion to starting ketone and amine” value [3] of the same compound?
Its value is “stable”.
